Consider two compounds from patent publication US20240025899A1, “TRIHETEROCYCLIC DERIVATIVE, AND PHARMACEUTICAL COMPOSITION AND APPLICATION THEREOF” (SHANGHAI DE NOVO PHARMATECH CO., LTD., priority 2020, published 2024).

What is called IC50 is the midpoint of a concentration-inhibition curve. Read a low IC50 as greater potency in that assay.

Molecules are shown by their SMILES. Structures can show the parent of a compound that is named as a salt.

The target of one test is hERG channel (Homo sapiens (Human), UniProt Q12809). In words: Cardiac safety evaluation, hERG study (QPatch whole-cell recording). It counts as cell-based. The note with it: CHO cell line expressing hERG channel. How it is done:
In this experiment, a CHO cell line stably transfected with hERG cDNA and expressing p15 hERG channel was used. Cells were incubated at 37° C. in a humidified incubator containing 5% CO2 in medium (Ham's F12, 10% v/v FBS, 100 μg/mL hygromycin B, 100 μg/mL geneticin) (from Invitrogen). Cells were grown under the above conditions and reached approximately 80-90% of the confluency. Cells were treated with Detachin (Genlantis) for 3 to 5 minutes. The medium was titrated 15 to 20 times at 37° C., and then the cells were resuspended in CHO-S-SFM II medium (serum-free medium, Invitrogen) buffered with HEPES (25 mM). Cells used for QPatch studies must meet the following criteria: Most suspension cells should be single and isolated under microscopy; viability should be greater than 95%; cell density in the final suspension should be in the range of 3 to 8×10^6 cells/mL before application to the QPatch stir chamber. Cells meeting the above conditions can be used for recordings within 4 hours of harvest.
Test compounds were made into 10 mM DMSO stock solutions. Six doses (30, 10, 3, 1, 0.3 and 0.1 μM) were selected to obtain the fitted curves and IC50. The final DMSO concentration was 0.1% or less. The IC50 of the positive control cisapride was assessed at doses of 3, 1, 0.3, 0.1, 0.03 and 0.01 μM, respectively. Composition of […] for electrophysiological recordings: CaCl2 2 mM, MgCl2 1 mM, KCl 4 mM, NaCl 145 mM, Glucose 10 mM, HEPES 10 mM, pH 7.4 (NaOH), composition of external solution: CaCl2 […], MgCl2 1.75 mM, KCl 120 mM, HEPES 10 mM, EGTA 5 mM, Na-ATP 4 mM, pH 7.25 (KOH) (all reagents used were from sigma).
Whole-cell recordings were performed using automated QPatch (Sophion Biosciences, Denmark). Cells were recorded for 120 s to assess current stability. The above voltages were then applied to the cells every 15 s throughout the procedure. […]
The data were analyzed with Sophion Assay software (determination software V5.0), Microsoft Excel and Graphpad Prism 5.0 to obtain IC50 of compounds.
On the technique in general: The hERG channel carries a current that helps repolarise heart muscle cells.

Test [1] deals with OCI-LY19 human B-cell lymphoma. In words: In vivo drug efficacy, OCI-LY19 human B-cell lymphoma mouse subcutaneous xenograft tumor model. How it is done: Cell culture: Human B-cell lymphoma OCI-LY19 cells were maintained as a monolayer in MEM-α medium containing 10% fetal bovine serum in a constant temperature incubator at 37° C. with 5% CO2. Tumor cells were subcultured twice a week. Cells in exponential growth phase were harvested and counted for inoculation.
Experimental animals: BALB/c nude mice, 6-8 weeks old, 19-22 g, purchased from Beijing Vital River Laboratory Animal Technology Co., Ltd.
For Vehicle, positive control (AZD6738, CAS number: 1352226-88-0) and compound 2, a total of 6 experimental groups were set up, as shown in Table 5 below:
Experimental method: The OCI-LY19 cell line (3.0×10^6 cells/mouse) was inoculated subcutaneously on the right back of the experimental mouse, and the inoculation volume of each mouse was 0.1 mL, and the growth of tumors was observed regularly, and until the tumor grew to about 100 mm^3, the mice were randomly divided into groups according to the tumor size and body weight, and administered according to the administration plan shown in Table 5, and the mouse body weight and tumor size were measured twice a week during the whole experiment.
tumor volume (mm^3)=0.5×(tumor long diameter×tumor short diameter^2). Tumor size calculation formula: […]

[2] abbreviates: Group 3, 5 mg/kg p.o. once a day.
[3] abbreviates: Group 4, 10 mg/kg p.o. once a day.
The mark [4] stands for this setting: Group 5, 10 mg/kg p.o. once a day × 4 days on, 3 days off.
Setting [5] is: Group 6, 20 mg/kg p.o. once a day × 4 days on, 3 days off.

hERG channel, sequence (Q12809 whole entry): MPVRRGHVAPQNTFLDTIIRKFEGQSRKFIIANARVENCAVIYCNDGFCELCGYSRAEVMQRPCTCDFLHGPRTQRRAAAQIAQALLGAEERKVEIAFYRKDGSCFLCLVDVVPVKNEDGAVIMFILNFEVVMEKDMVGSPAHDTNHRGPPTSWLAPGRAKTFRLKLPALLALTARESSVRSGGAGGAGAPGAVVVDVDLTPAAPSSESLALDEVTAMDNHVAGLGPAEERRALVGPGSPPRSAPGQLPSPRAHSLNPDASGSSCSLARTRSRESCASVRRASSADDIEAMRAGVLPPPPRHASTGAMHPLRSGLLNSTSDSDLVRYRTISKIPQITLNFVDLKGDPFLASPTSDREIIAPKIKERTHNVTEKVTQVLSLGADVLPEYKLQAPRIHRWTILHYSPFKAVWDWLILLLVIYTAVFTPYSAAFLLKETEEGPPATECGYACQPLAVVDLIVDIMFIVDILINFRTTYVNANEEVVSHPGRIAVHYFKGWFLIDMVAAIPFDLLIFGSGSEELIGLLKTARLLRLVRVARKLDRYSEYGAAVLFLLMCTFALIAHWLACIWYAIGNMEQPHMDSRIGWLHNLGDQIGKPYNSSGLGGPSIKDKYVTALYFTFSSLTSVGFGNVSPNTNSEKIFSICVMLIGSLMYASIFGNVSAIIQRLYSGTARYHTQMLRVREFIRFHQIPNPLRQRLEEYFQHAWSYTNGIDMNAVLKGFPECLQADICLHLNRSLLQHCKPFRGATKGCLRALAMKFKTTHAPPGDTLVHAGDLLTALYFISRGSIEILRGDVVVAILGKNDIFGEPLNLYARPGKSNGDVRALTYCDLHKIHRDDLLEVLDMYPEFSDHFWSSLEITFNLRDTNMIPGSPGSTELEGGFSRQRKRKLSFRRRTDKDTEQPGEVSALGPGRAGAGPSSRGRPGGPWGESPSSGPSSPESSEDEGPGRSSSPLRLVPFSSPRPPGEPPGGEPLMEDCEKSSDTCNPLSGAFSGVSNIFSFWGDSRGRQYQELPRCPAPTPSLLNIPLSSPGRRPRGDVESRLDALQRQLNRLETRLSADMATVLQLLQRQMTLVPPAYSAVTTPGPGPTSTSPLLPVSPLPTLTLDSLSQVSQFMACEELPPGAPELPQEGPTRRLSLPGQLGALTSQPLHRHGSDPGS

The compound `C[C@@H]1COCCN1c1nc2c(cnn2-c2cc[nH]n2)c2c1ccn2S(C)(=O)=O` [Compound 1, (R)-3-methyl-4-(1-(methylsulfonyl)-6-(1H-pyrazol-3-yl)-1,6-dihydropyrazolo[3,4-b]pyrrolo[2,3-d]pyridin-4-yl)morpholine trifluoroacetate] displayed an IC50 against hERG channel of over 30 µM.
On to `C[C@@H]1COCCN1c1nc2c(cnn2-c2cc[nH]n2)c2c1CCN2S(C)(=O)=O` [Compound 2, (R)-3-methyl-4-(1-(methylsulfonyl)-6-(1H-pyrazol-3-yl)-1,2,3,6-tetrahydropyrazolo[3,4-b]pyrrolo[2,3-d]pyridin-4-yl)morpholine trifluoroacetate], for which the IC50 at hERG channel was over 30 µM. In addition, the “T/C (%)” value in test [1] (setting [2]) is 17.9%; in test [1] (setting [3]) it was 8.5%; in test [1] (setting [4]), 15.9%; in test [1] (setting [5]), 7.9%. Also, the “TGI (%)” value in test [1] (setting [2]) is 86.0%; in test [1] (setting [3]), 95.9%; in test [1] (setting [4]), 88.2%; in test [1] (setting [5]), 96.5%. The “Tumor volume (10 days, mm^3)” value in test [1] (setting [2]) worked out at 109.41 ± 4.35 mm^3; in test [1] (setting [3]), 109.00 ± 4.19 mm^3; in test [1] (setting [4]), 109.20 ± 3.96 mm^3; in test [1] (setting [5]), 109.24 ± 4.22 mm^3. The “Tumor volume (24 days, mm^3)” value in test [1] (setting [2]) is 424.51 ± 77.26 mm^3; in test [1] (setting [3]) it was 202.09 ± 44.85 mm^3; in test [1] (setting [4]), 375.56 ± 92.96 mm^3; in test [1] (setting [5]), 187.91 ± 27.01 mm^3.
